These results are taken from EP1137645B1, “ALPHA-METHYLBENZYL-CONTAINING THIOUREA INHIBITORS OF HERPES VIRUSES CONTAINING A […] GROUP” (Wyeth, priority 1998, dated 2000).

One experiment has as its system VZV strain Ellen. Kind of experiment: VZV antiviral (ELISA) assay. It is filed as cell-based. Here is the method:
For the generation of stock VZV to be used in the assay, VZV strain Ellen (ATCC #VR-1367) is used to infect human foreskin fibroblast (HFF) cells at low multiplicity (less than 0.1) and incubated overnight at 37°C in 5% CO2. After the overnight incubation, the mixture of uninfected and VZV-infected HFF infected cells are then harvested and added to each well of 96-well plates (3.5x10^4 cells in 100 µl DMEM supplemented with 2% FBS) which contain test compound or the reference standard drug control (in 100µl DMEM supplemented with 2% FBS per well). These cells are incubated for three days at 37°C in 5% CO2, then fixed for ELISA assay. The primary antibody is murine anti-VZV glycoprotein II monoclonal antibody (Applied Biosystems, Inc. #13-145-100) and the secondary antibody is goat anti-mouse IgG linked to β-galactosidase. Thus the extent of viral replication is determined by assessing β-galactosidase activity by quantifying the generation of the 4-methyl umbelliferone fluorescent cleavage product after addition of the methyl umbelliferyl-β-D-galactoside (Sigma #M1633) substrate on a microfluorimeter (365nm for excitation and 450nm for emission). Antiviral activity (IC50) of the test compound is determined by comparing the flourescence obtained in absence of compound to that obtained in the presence of compound.
On the technique in general: In an ELISA, binding on a coated surface is turned into a signal by an enzyme label.

The test system of experiment [1] is HCMV recombinant mutant virus whose genome contains the prokaryotic beta-glucuronidase gene. Kind of experiment: microbe, parasite or virus in culture. It is filed as cell-based, human cytomegalovirus. As to conditions: Human betaherpesvirus 5, Fibroblast. The text has this:
Microtiter plate assay. Ninety-six well plate cultures of human foreskin fibroblasts are infected in the presence of inhibitor compound with a HCMV recombinant mutant virus whose genome contains the prokaryotic beta-glucuronidase gene (Jefferson, R. A., S. M. Burgess, and D. Hirsh. 1986. Beta-glucuronidase from Escherichia coli as a gene fusion marker. Proc. Natl. Acad. Sci. USA 83:8447-8451) whose expression is controlled by a viral promoter. An example of such a virus is RV145 (Jones, T. R., V. P. Muzithras, and Y. Gluzman. 1991. Replacement mutagenesis of the human cytomegalovirus genome: US10 and US11 gene products are nonessential. J. Virol. 65:5860-5872). Since it is under the control of a viral promoter, beta-glucuronidase expression is an indirect indicator of growth and replication of HCMV in this assay. At 96 hours post-infection, the infected cell lysates are prepared (using 50mM sodium phosphate [pH7.0] containing 0.1% Triton X-100 and 0.1% sarkosyl) and assayed for beta-glucuronidase activity using a substrate for the enzyme which when cleaved yields either a product which can be measured colorimetrically in a spectrophotometer or fluorescently in a microfluorimeter. Examples of such substrates are p-nitrophenyl-beta-D-glucuronide and methylumbelliferylglucuronide, respectively. The presence of an antiviral compound is indicated by the reduced expression of the HCMV genome resident beta-glucuronidase gene, compared to the absence of inhibitor. […] Data from this assay generated using varying amounts of inhibitor compound is also used to estimate the IC50 of an inhibitor compound.

[2] abbreviates: Human alphaherpesvirus 3, HFF, read-out: IC50 (ug/ml) VZV, VZV strain Ellen, HFF cells, ELISA.
[3] abbreviates: read-out: IC50 ug/ml HCMV, HCMV, human foreskin fibroblasts.
Where [4] appears, read: Human alphaherpesvirus 3, VZV strain Ellen, HFF cells, ELISA, read-out: IC50 (ug/ml) VZV.

Each structure is given as a SMILES string. In brackets after ≈: the same amount, converted by molar mass. Read-outs that look alike come from different tables or passages of the source.

In the case of `O=C(Nc1ccc(NC(=S)NCc2ccc(N3CCCCC3)c(C(F)(F)F)c2)cc1)c1ccccc1F` [Example 616, 2-Fluoro-N-{4-[3-(4-piperidin-1-yl-3-trifluoromethyl-benzyl)-thioureido]-phenyl}-benzamide], in the experiment with VZV strain Ellen (setting [2]), the IC50 was > 10 µg/mL. As for `C[C@H](NC(=S)Nc1ccc(NC(=O)c2ccc(F)cc2)cc1)c1ccc(Br)cc1` [Example 1103, N-(4-{3-[(1S)-1-(4-Bromo-phenyl)-ethyl]-thioureido}-phenyl)-4-fluoro-benzamide], the IC50 in experiment [1] (setting [3]) came to 3.4 µg/mL (≈ 7.2 µM); in the experiment on VZV strain Ellen (setting [2]), 0.47 µg/mL (≈ 0.995 µM). Consider `COc1ccccc1C(=O)Nc1ccc(NC(=S)N[C@@H](C)c2ccc(Br)cc2)cc1` [Example 1104, N-(4-{3-[(1S)-1-(4-Bromo-phenyl)-ethyl]-thioureido}-phenyl)-2-methoxy-benzamide], for which the IC50 in experiment [1] (setting [3]) was 4.9 µg/mL (≈ 10.1 µM); in the experiment on VZV strain Ellen (setting [2]), 0.09 µg/mL (≈ 0.186 µM). As to `CN(C)c1ccc(CNC(=S)Nc2ccc(NC(=O)c3ccccc3F)cc2)cc1C(F)(F)F` [Example 610, N-{4-[3-(4-Dimethylamino-3-trifluoromethyl-benzyl)-thioureido]-phenyl}-2-fluoro-benzamide], the IC50 in experiment [1] (setting [3]) is > 0.5 µg/mL; with VZV strain Ellen (setting [2]) it was > 10 µg/mL. Regarding `CC(NC(=S)Nc1ccc(NC(=O)c2ccccc2C#N)cc1)c1ccc(F)cc1` (centres unmarked) [Example 993, 2-Cyano-N-(4-{3-[1-(4-fluoro-phenyl)-ethyl]-thioureido}-phenyl)-benzamide], the IC50 with VZV strain Ellen (setting [4]) is 2.7 µg/mL (≈ 6.45 µM). Same read-out and setting: with `O=C(Nc1ccc(NC(=S)NCc2cc(F)cc(C(F)(F)F)c2)cc1)c1ccccc1F` [Example 586, 2-Fluoro-N-{4-[3-(3-fluoro-5-trifluoromethyl-benzyl)-thioureido]-phenyl}-benzamide] the figure was > 10 µg/mL. Take `CC(NC(=S)Nc1ccc(NC(=O)c2nccc3ccccc23)cc1)c1ccc(F)cc1` (centres unmarked) [Example 1110, Isoquinoline-1-carboxylic acid (4-{3-[1-(4-fluoro-phenyl)-ethyl]-thioureido}-phenyl)-amide]: the figures for the IC50 (in experiment [1] (read-out: IC50 ug/ml HCMV); in the experiment on VZV strain Ellen (setting [4])) were 3.3 µg/mL (≈ 7.42 µM) and 0.05 µg/mL (≈ 0.112 µM), respectively. Regarding `O=C(Nc1ccc(NC(=S)NCc2ccc(F)c(C(F)(F)F)c2)cc1)c1ccccc1F` [Example 623, 2-Fluoro-N-{4-[3-(4-fluoro-3-trifluoromethyl-benzyl)-thioureido]-phenyl}-benzamide], the IC50 with VZV strain Ellen (setting [4]) is > 10 µg/mL.

`CCC(C)Cc1cc(NC(=S)Nc2ccc(NC(=O)c3ccccc3F)cc2)cc(C(F)(F)F)c1` (centres unmarked) [Example 577, 2-Fluoro-N-(4-{3-[3-(2-methyl-butyl)-5-trifluoromethyl-phenyl]-thioureido}-phenyl)-benzamide]: the IC50 with VZV strain Ellen (setting [2]) is > 7.5 µg/mL. Turning to `C[C@H](NC(=S)Nc1ccc(NC(=O)c2nccc3ccccc23)cc1)c1ccc(Br)cc1` [Example 1107, Isoquinoline-1-carboxylic acid (4-{3-[(1S)-1-(4-bromo-phenyl)-ethyl]-thioureido}-phenyl)-amide], the values for the IC50 (in experiment [1] (setting [3]); in the experiment with VZV strain Ellen (setting [2])) were 8.1 µg/mL (≈ 16 µM) and 0.05 µg/mL (≈ 0.0989 µM), respectively. Regarding `C[C@H](NC(=S)Nc1ccc(NC(=O)c2nccc3ccccc23)cc1)c1ccc(C#N)cc1` [Example 1111], the IC50 in experiment [1] (setting [3]) is > 10 µg/mL; in the experiment with VZV strain Ellen (Human alphaherpesvirus 3, HFF, read-out: IC50 (ug/ml) VZV) it was 0.1 µg/mL (≈ 0.221 µM). With `CC(NC(=S)Nc1ccc(NC(=O)c2ccccc2I)cc1)c1ccc(F)cc1` (centres unmarked) [Example 812, N-(4-{3-[1-(4-Fluoro-phenyl)-ethyl]-thioureido}-phenyl)-2-iodo-benzamide], the IC50 in the experiment on VZV strain Ellen (setting [4]) stood at 3.4 µg/mL (≈ 6.55 µM). Consider `CN(C)c1cc(NC(=S)Nc2ccc(NC(=O)c3ccccc3F)cc2)cc(C(F)(F)F)c1` [Example 567, N-{4-[3-(3-Dimethylamino-5-trifluoromethyl-phenyl)-thioureido]-phenyl}-2-fluoro-benzamide], for which the IC50 in experiment [1] (read-out: IC50 ug/ml HCMV) is > 0.5 µg/mL; with VZV strain Ellen (setting [4]), 2 µg/mL (≈ 4.2 µM). Regarding `O=C(Nc1ccc(NC(=S)NCc2cc(Cl)cc(Cl)c2)cc1)c1ccccc1F` [Example 583, N-{4-[3-(3,5-Dichloro-benzyl)-thioureido]-phenyl}-2-fluoro-benzamide], the IC50 in the experiment with VZV strain Ellen (setting [2]) was 10 µg/mL (≈ 22.3 µM). `C[C@H](NC(=S)Nc1ccc(NC(=O)c2nccc3ccccc23)cc1)c1ccc(Cl)cc1` [Example 1109, Isoquinoline-1-carboxylic acid (4-{3-[(1S)-1-(4-chloro-phenyl)-ethyl]-thioureido) -phenyl)-amide]: the IC50 in experiment [1] (read-out: IC50 ug/ml HCMV) came to 4.4 µg/mL (≈ 9.54 µM); with VZV strain Ellen (setting [4]) it was 0.03 µg/mL (≈ 0.0651 µM). With `CC(NC(=S)Nc1ccc(NC(=O)c2ccccc2F)cc1)c1ccc(Br)cc1` (centres unmarked) [Example 1102, N-(4-{3-[1-(4-Bromo-phenyl)-ethyl]-thioureido}-phenyl)-2-fluoro-benzamide], the IC50 was found to be 1.7 µg/mL (≈ 3.6 µM) in experiment [1] (setting [3]) and 0.2 µg/mL (≈ 0.423 µM) in the experiment on VZV strain Ellen (setting [2]). On to `O=C(Nc1ccc(NC(=S)NCc2cc(F)cc(F)c2)cc1)c1ccccc1F` [Example 580, N-{4-[3-(3,5-Difluoro-benzyl)-thioureido]-phenyl}-2-fluoro-benzamide], for which, in the experiment with VZV strain Ellen (setting [4]), the IC50 is > 10 µg/mL.

`O=C(Nc1ccc(NC(=S)Nc2cc(N3CCCC3)cc(C(F)(F)F)c2)cc1)c1ccccc1F` [Example 566, 2-Fluoro-N-{4-[3-(3-pyrrolidin-1-yl-5-trifluoromethyl-phenyl)-thioureido]-phenyl}-benzamide]: the values for the IC50 (in experiment [1] (setting [3]); in the experiment with VZV strain Ellen (setting [2])) were > 0.5 µg/mL and 2 µg/mL (≈ 3.98 µM), respectively. On to `CC(C)Cc1cc(NC(=S)Nc2ccc(NC(=O)c3ccccc3F)cc2)cc(C(F)(F)F)c1` [Example 578, 2-Fluoro-N-{4-[3-(3-isobutyl-5-trifluoromethyl-phenyl)-thioureido]-phenyl}-benzamide], for which the IC50 in the experiment on VZV strain Ellen (setting [2]) is > 10 µg/mL. As for `CC(NC(=S)Nc1ccc(NC(=O)c2ccccc2C(F)(F)F)cc1)c1ccc(F)cc1` (centres unmarked) [Example 992, N-(4-{3-[1-(4-Fluoro-phenyl)-ethyl]-thioureido}-phenyl)-2-trifluoromethyl-benzamide], the IC50 in experiment [1] (read-out: IC50 ug/ml HCMV) stood at 4 µg/mL (≈ 8.67 µM); in the experiment on VZV strain Ellen (setting [4]), 1.2 µg/mL (≈ 2.6 µM). In the case of `CN1CCN(c2cc(NC(=S)Nc3ccc(NC(=O)c4ccccc4F)cc3)cc(C(F)(F)F)c2)CC1` [Example 569, 2-Fluoro-N-(4-{3-[3-(4-methyl-piperazin-1-yl)-5-trifluoromethyl-phenyl]-thioureido}-phenyl)-benzamide], the IC50 in experiment [1] (setting [3]) is > 0.5 µg/mL; in the experiment with VZV strain Ellen (setting [2]) it was 3 µg/mL (≈ 5.64 µM). As for `O=C(Nc1ccc(NC(=S)NCCc2ccccc2)cc1)c1ccccc1F` [Example 576, 2-Fluoro-N-[4-(3-phenethyl-thioureido)-phenyl]-benzamide], the IC50 in experiment [1] (read-out: IC50 ug/ml HCMV) was > 0.5 µg/mL; in the experiment on VZV strain Ellen (setting [4]), 8 µg/mL (≈ 20.3 µM). As for `C[C@@H](NC(=S)Nc1ccc(NC(=O)c2ccccc2F)cc1)c1ccc(Br)cc1` [Example 1005, N-(4-{3-[(1R)-1-(4-Bromo-phenyl)-ethyl]-thioureido}-phenyl)-2-fluoro-benzamide], the IC50 came out at 2.1 µg/mL (≈ 4.45 µM) in experiment [1] (setting [3]) and 4.3 µg/mL (≈ 9.1 µM) with VZV strain Ellen (setting [2]). For `CC(NC(=S)Nc1ccc(NC(=O)c2cc3ccccc3cn2)cc1)c1ccc(F)cc1` (centres unmarked) [Example 984, Isoquinoline-3-carboxylic acid (4-{3-[1-(4-fluoro-phenyl)-ethyl]-thioureido}-phenyl)-amide] the same measures were 1.5 µg/mL (≈ 3.37 µM) and 0.08 µg/mL (≈ 0.18 µM). Regarding `CC(NC(=S)Nc1ccc(NC(=O)c2ccccc2F)cc1)c1ccc(C(F)(F)F)cc1F` (centres unmarked) [Example 1106, 2-fluoro-N-(4-{[({1-[2-fluoro-4-(trifluoromethyl)phenyl]ethyl}amino)carbothioyl]amino}phenyl)benzamide], the IC50 in experiment [1] (read-out: IC50 ug/ml HCMV) is 1.1 µg/mL (≈ 2.29 µM); in the experiment with VZV strain Ellen (setting [4]) it was > 7.5 µg/mL. As for `O=C(Nc1ccc(NC(=S)NCCOc2ccccc2)cc1)c1ccccc1F` [Example 625, 2-Fluoro-N-{4-[3-(2-phenoxy-ethyl)-thioureido]-phenyl}-benzamide], the IC50 in the experiment on VZV strain Ellen (setting [4]) was 4 µg/mL (≈ 9.77 µM). Take `COc1ccccc1C(=O)Nc1ccc(NC(=S)N[C@H](C)c2ccc(Br)cc2)cc1` [Example 1105, N-(4-{3-[(1R)-1-(4-Bromo-phenyl)-ethyl]-thioureido}-phenyl)-2-methoxy-benzamide]: the IC50 is 2.5 µg/mL (≈ 5.16 µM) in experiment [1] (setting [3]) and > 7.5 µg/mL in the experiment on VZV strain Ellen (setting [2]).
